Test results reported in US20240417405A1, “Substituted Spiro Derivatives” (Janssen Pharmaceutica NV, priority 2021, published 2024).

What was measured:
[1] = molecular target: T1, menin/MLL (terbium chelate-labeled menin, FITC-MBM1 peptide) (Homo sapiens, UniProt O00255, T541A); assay: Menin/MLL homogenous time-resolved fluorescence (HTRF) assay; type: binding; conditions: 30 min incubation
T1 construct: Menin (a.a 1-610-6xhis tag)
T1 sequence (O00255 with tags, fused parts or gaps T541A): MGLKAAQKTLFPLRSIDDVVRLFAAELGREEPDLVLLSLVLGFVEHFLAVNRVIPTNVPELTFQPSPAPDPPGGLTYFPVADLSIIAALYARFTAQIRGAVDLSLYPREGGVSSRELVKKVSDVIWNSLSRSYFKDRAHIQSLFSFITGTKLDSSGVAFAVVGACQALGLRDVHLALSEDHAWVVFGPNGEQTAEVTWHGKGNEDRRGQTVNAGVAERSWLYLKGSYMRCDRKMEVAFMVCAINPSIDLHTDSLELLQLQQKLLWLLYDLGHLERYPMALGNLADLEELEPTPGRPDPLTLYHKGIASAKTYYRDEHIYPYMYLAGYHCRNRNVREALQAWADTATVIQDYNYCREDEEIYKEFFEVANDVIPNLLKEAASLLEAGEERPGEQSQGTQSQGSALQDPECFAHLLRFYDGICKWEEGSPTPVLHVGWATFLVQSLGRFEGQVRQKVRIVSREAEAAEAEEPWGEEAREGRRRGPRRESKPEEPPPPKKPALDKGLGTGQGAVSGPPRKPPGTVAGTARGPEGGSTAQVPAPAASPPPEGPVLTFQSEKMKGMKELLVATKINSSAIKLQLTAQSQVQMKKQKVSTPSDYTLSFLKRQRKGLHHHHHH
Method in brief: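 Tb-cryptate menin (1-610, 6xHis) 200 pM + cmpd, 30 min RT; + FITC-MBM1 75 nM, 15 min RT. 40 mM Tris pH 7.5, 50 mM NaCl, 1 mM DTT, 0.05% Pluronic F-127, 0.5% DMSO. HTRF 520/490; 11-pt 4-fold from 10 μM; IC50 fit.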

MOLM14 cells = assay: Proliferation assay, spheroid-like growth, MOLM14 (MLL-AF9 rearranged); type: cell-based, human; conditions: Homo sapiens, MOLM-14, 192 h, 8 days, confluence as measure of spheroid size, read-out: spheroid assay_OneTime MOLM14 IC50
Method in brief: (§1)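 200 MOLM14 or 300 KO-52 cells/well, ultra-low attachment, compound dilutions, DMSO 0.3%; 8 d, 37 °C, 5% CO2. Read: live-cell imaging confluence (spheroid size) day 8. Absolute IC50, min 0%/max 100% fixed, variable slope.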

KO-52 cells = assay: Proliferation assay, spheroid-like growth, KO-52 (MLL wildtype control cell line); type: cell-based, human; conditions: Homo sapiens, 192 h, KO-52 control cells, 8 days, confluence as measure of spheroid size; read-out: spheroid assay_OneTime KO-52 IC50
Method in brief: as §1

| SMILES | IC50 [1] | IC50 (MOLM14 cells) | IC50 (KO-52 cells) |
| --- | --- | --- | --- |
| CC(C)[C@H]([C@H]1C[C@@H](N2CCC[C@@H](F)C2)C1)N1CC2(CCN(c3ncnnc3Oc3ccc(F)cc3-c3cncnc3C3CC3)C2)C1 (single isomer, unassigned) [Compound 206] | 0.2 nM | 9 nM | 7950 nM |
| CC(C)[C@H]([C@H]1C[C@@H](N2CCOCC2)C1)N1CC2(CCN(c3ncnnc3Oc3ccc(F)cc3-c3cncnc3C3CC3)C2)C1 (single isomer, unassigned) [Compound 208] | 0.3 nM | 29 nM | 9130 nM |
| CC(C)[C@H]([C@H]1C[C@@H](N2CCC(S(=O)(=O)C(C)C)CC2)C1)N1CC2(CCN(c3ncnnc3Oc3ccc(F)cc3-c3cncnc3C3CC3)C2)C1 (single isomer, unassigned) [Compound 209] | 0.3 nM | 16 nM | 5260 nM |
| CO[C@@H]1CCN([C@H]2C[C@@H]([C@@H](C(C)C)N3CC4(CCN(c5ncnnc5Oc5ccc(F)cc5-c5cncnc5C5CC5)C4)C3)C2)C1 (single isomer, unassigned) [Compound 211] | 0.1 nM | 3 nM | > 15000 nM |
| CC(C)[C@H]([C@H]1C[C@@H](N2C[C@H](O)C3(CCC3)C2)C1)N1CC2(CCN(c3ncnnc3Oc3ccc(F)cc3-c3cncnc3C3CC3)C2)C1 (single isomer, unassigned) [Compound 214] | 0.1 nM | < 2 nM | 3630 nM |
| CC(C)[C@H]([C@H]1C[C@@H](N2C[C@@H](O)C3(CCC3)C2)C1)N1CC2(CCN(c3ncnnc3Oc3ccc(F)cc3-c3cncnc3C3CC3)C2)C1 (single isomer, unassigned) [Compound 215] | 0.1 nM | 2 nM | 7940 nM |
| CC(C)[C@H]([C@H]1C[C@@H](N2CCC3(CC2)COC3)C1)N1CC2(CCN(c3ncnnc3Oc3ccc(F)cc3-c3cncnc3C3CC3)C2)C1 (single isomer, unassigned) [Compound 231] | 0.1 nM | 7 nM | 5520 nM |
| CC(C)[C@H]([C@H]1C[C@@H](N2CCC3(CCO3)CC2)C1)N1CC2(CCN(c3ncnnc3Oc3ccc(F)cc3-c3cncnc3C3CC3)C2)C1 (single isomer, unassigned) [Compound 232] | 0.1 nM | 7 nM | 1800 nM |
| CO[C@H]1[C@@H]2CN([C@H]3C[C@@H]([C@@H](C(C)C)N4CC5(CCN(c6ncnnc6Oc6ccc(F)cc6-c6cncnc6C6CC6)C5)C4)C3)C[C@@H]21 (single isomer, unassigned) [Compound 233] | 0.1 nM | 2 nM | 840 nM |
| CC(C)[C@H]([C@H]1C[C@@H](N2C[C@H]3C[C@@H]2CO3)C1)N1CC2(CCN(c3ncnnc3Oc3ccc(F)cc3-c3cncnc3C3CC3)C2)C1 (single isomer, unassigned) [Compound 234] | 0.1 nM | 9 nM | 6280 nM |
| COC1CN([C@H]2C[C@@H]([C@@H](C(C)C)N3CC4(CCN(c5ncnnc5Oc5ccc(F)cc5-c5cncnc5C5CC5)C4)C3)C2)CC1OC (single isomer, unassigned) [Compound 236] | 0.2 nM | 4 nM | 2250 nM |
| COC1CN([C@H]2C[C@H]([C@@H](C(C)C)N3CC4(CCN(c5ncnnc5Oc5ccc(F)cc5-c5cncnc5C5CC5)C4)C3)C2)CC1OC (single isomer, unassigned) [Compound 237] | 0.2 nM | 36 nM | 7900 nM |
| CC(C)[C@H]([C@H]1C[C@@H](N2CC[C@H](F)C2)C1)N1CC2(CCN(c3ncnnc3Oc3ccc(F)cc3-c3cncnc3C3CC3)C2)C1 (single isomer, unassigned) [Compound 238] | 0.1 nM | 2 nM | 7170 nM |
| CC(C)[C@H]([C@H]1C[C@H](N2CC[C@H](F)C2)C1)N1CC2(CCN(c3ncnnc3Oc3ccc(F)cc3-c3cncnc3C3CC3)C2)C1 (single isomer, unassigned) [Compound 239] | 0.3 nM | 16 nM | 2810 nM |
| CC(C)[C@H]([C@H]1C[C@@H](N(C)CCCS(C)(=O)=O)C1)N1CC2(CCN(c3ncnnc3Oc3ccc(F)cc3-c3cncnc3C3CC3)C2)C1 (single isomer, unassigned) [Compound 242] | 0.1 nM | 8 nM | 12200 nM |
| CC(C)[C@H]([C@H]1C[C@@H](N2CC(C(=O)N(C)C)C2)C1)N1CC2(CCN(c3ncnnc3Oc3ccc(F)cc3-c3cncnc3C3CC3)C2)C1 (single isomer, unassigned) [Compound 243] | 2.5 nM | 580 nM | > 15000 nM |
| CC(C)[C@@H]([C@H]1C[C@H](N2C[C@H]3COC[C@H]3C2)C1)N1CC2(CCN(c3ncnnc3Oc3ccc(F)cc3-c3cncnc3C3CC3)C2)C1 (single isomer, unassigned) [Compound 245] | 0.6 nM | 460 nM | 8940 nM |
| CC(C)[C@H]([C@H]1C[C@@H](N2C[C@@H]3[C@H](C2)[C@H]3C(=O)N(C)C)C1)N1CC2(CCN(c3ncnnc3Oc3ccc(F)cc3-c3cncnc3C3CC3)C2)C1 (single isomer, unassigned) [Compound 248] | 0.1 nM | 4 nM | 1460 nM |
| CC(C)[C@@H]([C@H]1C[C@@H](N2CCCCC2)C1)N1CC2(CCN(c3ncnnc3Oc3ccc(F)cc3-c3nnccc3C3CC3)C2)C1 (single isomer, unassigned) [Compound 250] | 0.1 nM | 8 nM | 940 nM |
| CC(C)[C@@H]([C@H]1C[C@@H](N2CCC3(CCO3)CC2)C1)N1CC2(CCN(c3ncnnc3Oc3ccc(F)cc3-c3nnccc3C3CC3)C2)C1 (single isomer, unassigned) [Compound 251] | 0.2 nM | 7 nM | 1240 nM |
| CC(C)[C@H]([C@H]1C[C@@H](N2CCC3(CCO3)CC2)C1)N1CC2(CCN(c3ncnnc3Oc3ccc(F)cc3-c3nnccc3C3CC3)C2)C1 (single isomer, unassigned) [Compound 252] | 12.7 nM | 270 nM | > 15000 nM |
| CC(C)[C@@H]([C@H]1C[C@@H](N2CCC3(CC2)COC3)C1)N1CC2(CCN(c3ncnnc3Oc3ccc(F)cc3-c3nnccc3C3CC3)C2)C1 (single isomer, unassigned) [Compound 253] | 0.1 nM | 10 nM | 1620 nM |
| CC(C)[C@@H]([C@H]1C[C@@H](N2CCC3(COC3)C2)C1)N1CC2(CCN(c3ncnnc3Oc3ccc(F)cc3-c3nnccc3C3CC3)C2)C1 (single isomer, unassigned) [Compound 254] | 0.1 nM | 16 nM | > 15000 nM |
| CC(C)[C@H]([C@H]1C[C@@H](N2CCC3(COC3)C2)C1)N1CC2(CCN(c3ncnnc3Oc3ccc(F)cc3-c3nnccc3C3CC3)C2)C1 (single isomer, unassigned) [Compound 255] | 4.7 nM | 920 nM | > 15000 nM |
| CO[C@H]1CCCN([C@H]2C[C@@H]([C@H](C(C)C)N3CC4(CCN(c5ncnnc5Oc5ccc(F)cc5-c5nnccc5C5CC5)C4)C3)C2)C1 (single isomer, unassigned) [Compound 256] | 0.2 nM | 5 nM | > 15000 nM |
| CO[C@@H]1CCN([C@H]2C[C@@H]([C@H](C(C)C)N3CC4(CCN(c5ncnnc5Oc5ccc(F)cc5-c5nnccc5C5CC5)C4)C3)C2)C1 (single isomer, unassigned) [Compound 257] | 0.1 nM | 6 nM | > 15000 nM |
| CC(C)[C@@H]([C@H]1C[C@@H](N2C[C@H]3COC[C@H]3C2)C1)N1CC2(CCN(c3ncnnc3Oc3ccc(F)cc3-c3nnccc3C3CC3)C2)C1 (single isomer, unassigned) [Compound 258] | 0.1 nM | 4 nM | 490 nM |
| CC(C)[C@@H]([C@H]1C[C@H](N2C[C@H]3COC[C@H]3C2)C1)N1CC2(CCN(c3ncnnc3Oc3ccc(F)cc3-c3nnccc3C3CC3)C2)C1 (single isomer, unassigned) [Compound 259] | 0.4 nM | 94 nM | 4760 nM |
